Drawing on patent US6359168B1, “Compounds derived from menthol and use as refreshing agent” (Firmenich SA, priority 1998, dated 2002), this text covers freshness and cooling effect for 4 compounds.

What all share (assay type): in vivo, human
The test system of assay [1] is expert flavourists. The assay can be described thus: Gelatin-based grapefruit confectioneries compared by expert flavourists under blind conditions. The note with it: 0.05% by weight in gelatin-based grapefruit confectionery. On the procedure:
By a method which is known per se, grapefruit-flavoured confectioneries were prepared from 30 g gelatin, 175 g water, 150 g sugar and 200 g glucose. We then added 0.8% citric acid and 0.08% of a grapefruit flavouring of the formula given in Example 6. Under blind conditions, expert flavourists then compared this base preserve, without any additives, with preserve of the same composition to which certain compounds according to the invention had been added.

Assay [2] concerns expert tasters. Description: Chewing gum compared by expert tasters under blind conditions. The note with it: 0.4 parts by weight in chewing gum. The method, then: Chewing gum was prepared from a Cafosa Navada Plus T 413-01chewing-gum base (18 parts by weight) (source: Cafosa Gum Products Technology, Barcelona, Spain), sugar (60 parts by weight, glucose (20 parts by weight) and glycerol (0.5 parts by weight). 0.8 parts by weight of citric acid and 1 part by weight of lemon flavouring according to the formula given in Example 8 were then added to this mixture. Under blind conditions, expert tasters then compared this chewing-gum base, without any additives, with chewing gums of the same composition to which certain compounds according to the invention had been added.

Another assay relates to buccal mucosae. The assay can be described thus: Taste and cooling effect of the compound when tasted.
The test system of assay [3] is expert flavourists. The assay can be described thus: Lemon sorbets compared by expert flavourists under blind conditions. The note with it: 0.05% by weight in lemon sorbet. The method, then: Lemon sorbets were prepared from the following ingredients using conventional techniques: 0.5% citric acid and 0.01% of lemon flavouring of the following formula were then added: Under blind conditions, expert flavourists then compared this lemon sorbet, without any additives, with sorbets of the same composition to which certain compounds according to the invention had been added.

Assay [4] deals with expert flavourists. The assay can be described thus: Grapefruit-flavoured sweets compared by expert flavourists under blind conditions. The note with it: 0.05% in grapefruit-flavoured sweets. On the procedure: Grapefruit-flavoured sweets were prepared from boiled sugar, 1% citric acid, and 0.05% of a grapefruit flavouring of the following formula: Under blind conditions, expert flavourists then compared these sweets, without any additives, with sweets of the same composition to which certain compounds according to the invention had been added.

The subject of assay [5] is expert tasters. Description: Orange drink compared by expert tasters under blind conditions. The note with it: 0.003% in orange drink. The method, then: An orange-flavoured drink was prepared from a 65° Brix syrup which had been diluted to 10%, acidified with 1.5% citric acid and then flavoured with 0.01% of an orange flavouring of the following formula: Under blind conditions, expert tasters then compared this base drink, without any additives, with drinks of the same composition to which certain compounds according to the invention had been added.

In the case of `COCCOCC(=O)O[C@@H]1C[C@H](C)CC[C@H]1C(C)C` [(1R,2S,5R)-3-menthyl 3,6-dioxaheptanoate], the freshness entry in the assay on expert flavourists [1] is “the same freshness effect”; in the assay with expert tasters [2], “prolonged freshness”.
As for `CC(C)[C@@H]1CC[C@@H](C)C[C@H]1OC(=O)COCCO` [(1R,2S,5R)-3-menthyl (2-hydroxyethoxy)acetate], the cooling effect result with buccal mucosae was “immediately and intensely cooling”.
With `COCC(=O)O[C@@H]1C[C@H](C)CC[C@H]1C(C)C` [(1R,2S,5R)-3-menthyl methoxyacetate, (1R,2S,5R)-3-methyl methoxyacetate], the freshness result with expert flavourists [1] is “leaves a freshness in the mouth”; in the assay on expert flavourists [3], “pleasant freshness in the mouth”; in the assay on expert tasters [2], “prolonged freshness”; in the assay on expert flavourists [4], “yielded a freshness”; with expert tasters [5] it was “sensation of freshness which develops as an after-taste”.
`CC(C)[C@@H]1CC[C@@H](C)C[C@H]1OC(=O)COCCOCCOCCO` [(1R,2S,5R)-menthyl 11-hydroxy-3,6,9-trioxaundecanoate]: in the assay with buccal mucosae, the cooling effect entry is “develops more particularly on the tongue and in the throat”.
